We go through two compounds from US6864286B2, “Inhibitors of the EGF-receptor tyrosine kinase and methods for their use” (Parker Hughes Institute, priority 1998, dated 2005).

Each structure is given as a SMILES string. “Also recorded” adds a separate entry of the source.

One assay addresses T1, HCK (Homo sapiens, UniProt P08631).
T1 construct: expressed in transfected cells; host or cells: COS-7 simian kidney cells
The assay is described as follows: Cell-free HCK immune complex kinase assay. It counts as biochemical. The following applies: for effect on enzymatic activity of HCK: at concentrations as high as 350 μM, HCK from transfected COS7 cells. On the procedure:
(§1) Immunoprecipitations, immune-complex protein kinase assays, and immunoblotting using the ECL chemiluminescence detection system (Amersham Life Sciences) were conducted as described previously (Vassilev, A., et al. J. Biol. Chem. 1998, in press; Goodman, P. A., et al. J. Biol. Chem. 1998, 273, 17742; Mahajan, S., et al. Mol. Cell. Biol. 1995, 15, 5304; Uckun, F. M., et al. Science 1996, 22, 1096).
For HCK kinase assays, we used HCK-transfected COS-7 cells. The cloning and expression of HCK in COS-7 cells has been described previously (Saouaf, S. J., et al. J. Biol. Chem. 1995, 270, 27072). The pSV7c-HCK plasmid was transfected into 2×10^6 COS-7 cells using Lipofectamine (GIBCO/BRL), and the cells were harvested 48 hours later. The cells were lysed in NP-40 buffer and HCK was immunoprecipitated from the whole cell lysates with an anti-HCK antibody.

In assay [1] the test system is MDA-MB-231 breast cancer cells. Kind of assay: Flow cytometric apoptosis assay (MC540 binding / PI permeability). It counts as cell-based, human. Particulars: for Apoptotic fraction [AF] with MC540+/PI+ advanced stage apoptosis: 24 hours. The text has this: Loose packing of membrane phospholipid head groups and cell shrinkage precede DNA fragmentation in apoptotic cells, thereby providing MC540 binding as an early marker for apoptosis (Uckun F. M., et al. Clin. Cancer Res. 1998, 4, 901-912; and Kuo, E. A. J. Med. Chem. 1996, 39, 4608-4621). Plasma membrane permeability to propidium iodide (PI, Sigma) develops at a later stage of apoptosis (Uckun F. M., et al. Clin. Cancer Res. 1998, 4, 901-912; and Kuo, E. A. J. Med. Chem. 1996, 39, 4608-4621). MC540 binding and PI permeability were simultaneously measured in breast cancer cells 24 hours after exposure to leflunomide analogs, as described (Uckun F. M., et al. Clin. Cancer Res. 1998, 4, 901-912. Stock solutions of MC540 and PI, each at 1 mg/mL, were passed through a 0.22 μm filter and stored at 4° C. in the dark. Shortly before analysis, suspensions containing 1×10^6 cells were suspended in 5 μg/mL MC540 and 10 μg/mL PI and kept in the dark at 4° C. Whole cells were analyzed with a FACS Calibur or FACS Vantage flow cytometer (Becton Dickinson, San Jose, Calif.). All analyses were done using 488 nm excitation from an argon laser. MC540 and PI emissions were split with a 600 nm short pass dichroic mirror and a 575 nm band pass filter was placed in front of one photomultiplier tube to measure MC540 emission and a 635 nm band pass filter was used for PI emission.
Loose packing of membrane phospholipid head groups and cell shrinkage precede DNA fragmentation in apoptotic cells, thereby providing MC540 binding as an early marker for apoptosis (Uckun, F. M. et al., Science, 1995, 267, 886-891). MC540 binding and propidium iodide (PI) permeability of MDA-MB-231 breast cancer cells were simultaneously measured before and after a 24 hour treatment with 100 μM or 500 μM LFM-A12. Whole cells were analyzed with a FACStar Plus flow cytometer (Becton Dickinson, San Jose, Calif.).

Another assay addresses T2, JAK1 (Homo sapiens, UniProt P23458).
T2 construct: made in house; host or cells: Sf21 insect cells (baculovirus)
The assay is described as follows: Cell-free JAK1 immune complex kinase assay. It counts as biochemical. Particulars: for effect on enzymatic activity of JAK1: at concentrations as high as 350 μM. As for the experimental part:
as §1

Another assay has as its target T3, BTK (Homo sapiens, UniProt Q06187).
T3 construct: made in house; host or cells: Sf21 insect cells (baculovirus)
The assay is described as follows: Cell-free BTK immune complex kinase assay. It counts as biochemical. Particulars: for effect on enzymatic activity of BTK: at concentrations as high as 350 μM. As for the experimental part:
as §1

The next assay deals with MDA-MB-231 cells. Kind of assay: MTT cytotoxicity assay, MDA-MB-231. Particulars: Homo sapiens, 36 hours, read-out: Cancer Cell Cytotoxicity IC50 MDA-MB-231. It counts as cell-based. On the procedure: In order to determine the cytotoxic activity of LFM and its analogs against breast cancer cells, cells in alpha-MEM supplemented with 10% (v/v) fetal calf serum were treated with various concentrations of the compounds for 24 hours at 37° C., washed twice in alpha-MEM, and then used in either MTT assays or in vitro invasion assays, as described hereinafter.
The cytotoxicity of various compounds against human breast cancer cell lines was analyzed using the MTT (3-[4,5-dimethylthiazol-2-yl]-2,5-diphenyl tetrazolium bromide) assay (Boehringer Mannheim Corp., Indianapolis, Ind.). Uckun F. M., et al. Clin. Cancer Res. 1998, 4, 901-912. Exponentially growing breast cancer cells were seeded into a 96-well plate at a density of 2.5×10^4 cells/well and incubated for 36 hours at 37° C. prior to drug exposure. On the day of treatment, culture medium was carefully aspirated from the wells and replaced with fresh medium containing the LFM analogs at concentrations ranging from 2 to 250 μM. Triplicate wells were used for each treatment. The cells were incubated with the various compounds for 36 hours at 37° C. in a humidified 5% CO2 atmosphere. To each well, 10 μl of MTT (0.5 mg/ml final concentration) was added and the plates were incubated at 37° C. for 4 hours to allow MTT to form formazan crystals by reacting with metabolically active cells. The formazan crystals were solubilized overnight at 37° C. in a solution containing 10% SDS in 0.01 M HCl. The absorbence of each well was measured in a microplate reader (Labsystems) at 540 nm and a reference wavelength of 690 nm.
To translate the absorbance A540 values into the number of live cells in each well, the A540 values were compared to those on standard A540-versus-cell number curves generated for each cell line. The percent survival was calculated using the formula: % survival=Live cell number[test]/Live cell number [control]×100. The IC50 values were calculated by non-linear regression analysis using an Graphpad Prism software version 2.0 (Graphpad Software, Inc., San Diego, Calif.).

T3 sequence (Q06187 whole entry, species assumed): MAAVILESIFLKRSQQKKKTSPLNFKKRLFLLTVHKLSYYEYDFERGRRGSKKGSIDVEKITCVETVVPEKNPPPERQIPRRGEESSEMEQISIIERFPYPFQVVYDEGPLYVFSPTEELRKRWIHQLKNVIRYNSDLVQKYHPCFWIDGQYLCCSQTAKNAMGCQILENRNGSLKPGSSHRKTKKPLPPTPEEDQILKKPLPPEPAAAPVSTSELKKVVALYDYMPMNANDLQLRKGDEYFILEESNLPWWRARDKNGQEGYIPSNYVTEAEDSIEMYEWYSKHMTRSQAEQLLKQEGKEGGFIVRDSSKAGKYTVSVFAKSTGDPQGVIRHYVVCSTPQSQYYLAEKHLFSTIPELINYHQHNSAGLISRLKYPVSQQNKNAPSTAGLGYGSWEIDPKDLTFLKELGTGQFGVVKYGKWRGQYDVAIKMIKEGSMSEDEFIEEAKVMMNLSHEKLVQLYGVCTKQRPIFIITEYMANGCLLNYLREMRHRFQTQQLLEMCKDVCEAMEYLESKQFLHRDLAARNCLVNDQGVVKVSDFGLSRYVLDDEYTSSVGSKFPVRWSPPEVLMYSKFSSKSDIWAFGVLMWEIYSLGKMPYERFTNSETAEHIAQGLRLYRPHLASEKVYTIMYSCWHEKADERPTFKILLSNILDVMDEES
T1 sequence (P08631 whole entry, species assumed): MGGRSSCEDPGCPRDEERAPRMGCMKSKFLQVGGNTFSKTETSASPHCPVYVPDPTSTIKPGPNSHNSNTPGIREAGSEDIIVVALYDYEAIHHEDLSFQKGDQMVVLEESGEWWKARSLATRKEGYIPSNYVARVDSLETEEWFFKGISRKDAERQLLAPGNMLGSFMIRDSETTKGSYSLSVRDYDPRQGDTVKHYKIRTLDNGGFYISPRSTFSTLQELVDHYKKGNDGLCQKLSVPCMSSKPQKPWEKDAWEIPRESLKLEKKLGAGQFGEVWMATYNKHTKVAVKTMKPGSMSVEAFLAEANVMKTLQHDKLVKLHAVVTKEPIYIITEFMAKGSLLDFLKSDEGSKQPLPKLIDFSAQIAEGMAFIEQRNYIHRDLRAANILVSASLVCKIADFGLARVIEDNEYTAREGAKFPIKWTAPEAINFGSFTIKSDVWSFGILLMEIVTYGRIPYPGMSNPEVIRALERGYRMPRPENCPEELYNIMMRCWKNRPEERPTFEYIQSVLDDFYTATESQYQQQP
T2 sequence (P23458 whole entry, species assumed): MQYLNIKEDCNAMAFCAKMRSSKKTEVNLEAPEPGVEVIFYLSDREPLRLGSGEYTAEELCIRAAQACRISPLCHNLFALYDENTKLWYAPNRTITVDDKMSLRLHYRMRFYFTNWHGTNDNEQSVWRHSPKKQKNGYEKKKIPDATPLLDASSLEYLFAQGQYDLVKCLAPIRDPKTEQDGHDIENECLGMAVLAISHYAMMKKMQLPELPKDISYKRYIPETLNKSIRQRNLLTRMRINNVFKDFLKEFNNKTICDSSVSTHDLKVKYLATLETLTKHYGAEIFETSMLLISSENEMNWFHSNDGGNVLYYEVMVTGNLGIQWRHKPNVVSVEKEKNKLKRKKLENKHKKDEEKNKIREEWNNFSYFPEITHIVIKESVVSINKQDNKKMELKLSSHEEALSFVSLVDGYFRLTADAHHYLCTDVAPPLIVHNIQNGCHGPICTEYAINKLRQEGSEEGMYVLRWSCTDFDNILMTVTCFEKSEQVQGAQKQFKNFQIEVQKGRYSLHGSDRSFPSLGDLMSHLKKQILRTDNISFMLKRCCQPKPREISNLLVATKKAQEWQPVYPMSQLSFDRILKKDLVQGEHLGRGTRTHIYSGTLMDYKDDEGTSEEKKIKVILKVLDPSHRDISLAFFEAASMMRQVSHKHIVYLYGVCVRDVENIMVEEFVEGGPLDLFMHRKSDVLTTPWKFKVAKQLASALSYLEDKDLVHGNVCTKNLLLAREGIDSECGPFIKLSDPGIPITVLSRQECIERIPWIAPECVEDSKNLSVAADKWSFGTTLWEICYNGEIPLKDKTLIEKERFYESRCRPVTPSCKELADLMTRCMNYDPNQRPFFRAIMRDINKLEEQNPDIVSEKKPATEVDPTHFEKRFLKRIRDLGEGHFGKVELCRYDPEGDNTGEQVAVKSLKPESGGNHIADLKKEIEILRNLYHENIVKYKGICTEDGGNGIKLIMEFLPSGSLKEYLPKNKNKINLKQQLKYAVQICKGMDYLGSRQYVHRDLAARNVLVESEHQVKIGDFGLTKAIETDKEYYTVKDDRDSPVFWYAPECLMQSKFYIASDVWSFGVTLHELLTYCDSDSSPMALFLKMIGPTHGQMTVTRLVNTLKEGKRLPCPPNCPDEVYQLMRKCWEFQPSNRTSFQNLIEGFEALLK

As to `CC(O)=C(C#N)C(=O)Nc1ccc(C(F)(F)F)cc1` [LFM, α-Cyano-β-hydroxy-β-methyl-N-[4-(trifluoromethyl)phenyl]-propenamide, reference compound], on HCK, the “effect on enzymatic activity of HCK” value is reported as “did not affect the enzymatic activity; also recorded: lack of inhibition”. In addition, the induction of apoptosis result in assay [1] (MDA-MB-231, 24 hours) was “albeit to a lesser extent, also induced apoptosis”. At JAK1, the “effect on enzymatic activity of JAK1” value is “did not affect the enzymatic activity”. Moreover, the “effect on enzymatic activity of BTK” value on BTK is given as “did not affect the enzymatic activity”. In addition, the concentration for half-maximal inhibition (IC50) (in general, the concentration needed to halve the response being measured) with MDA-MB-231 cells was 199 µM.

Consider `C/C(O)=C(\C#N)C(=O)Nc1ccc(OC(F)(F)F)cc1` [LFM-A12, α-Cyano-β-hydroxy-β-methyl-N-[4-(trifluoromethoxy)phenyl]-propenamide], for which the IC50 was above 350 µM on HCK (HCK, cell-free, read-out: Inhibition IC50); above 175 µM on JAK1 (JAK1, cell-free, read-out: Inhibition IC50); above 175 µM on BTK (BTK, cell-free, read-out: Inhibition IC50); 53.4 µM in the assay on MDA-MB-231 cells. The “effect on enzymatic activity of HCK” value at HCK is listed as “did not affect the enzymatic activity; also recorded: lack of inhibition”. The “Apoptotic fraction [AF] with MC540+/PI+ advanced stage apoptosis” value in assay [1] (MDA-MB-231, 100 μM) turned out to be 54%; in assay [1] (MDA-MB-231, 500 μM), 85%. Also, on JAK1, the “effect on enzymatic activity of JAK1” value is recorded as “did not affect the enzymatic activity”. Besides, the “effect on enzymatic activity of BTK” value at BTK is on record as “did not affect the enzymatic activity”.
